# From PubChem BioAssay (NCI)
#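 In this assay, cells in 96-well plates receive the compound at five concentrations for 48 hours. Endpoints are linearly interpolated between the surrounding concentrations. TGI: concentration producing complete growth inhibition.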
# How the values were obtained:
# Assay in all cases: growth of human tumour cells (NCI), 48 h
# HS 578T breast = test system: HS 578T breast
# NCI-H23 lung = test system: NCI-H23 lung
# SN12C renal = test system: SN12C renal
# SF-295 CNS = test system: SF-295 CNS
# BT-549 breast = test system: BT-549 breast
# HL-60(TB) leukemia = test system: HL-60(TB) leukemia
# NCI/ADR-RES ovarian = test system: NCI/ADR-RES ovarian
# OVCAR-5 ovarian = test system: OVCAR-5 ovarian
# HCT-116 colon = test system: HCT-116 colon
# U251 CNS = test system: U251 CNS
# MDA-MB-231 breast = test system: MDA-MB-231 breast
# MALME-3M melanoma = test system: MALME-3M melanoma
# PC-3 prostate = test system: PC-3 prostate
# RXF 393 renal = test system: RXF 393 renal
# SW-620 colon = test system: SW-620 colon
# MCF7 breast = test system: MCF7 breast
# SK-MEL-5 melanoma = test system: SK-MEL-5 melanoma
# IGROV1 ovarian = test system: IGROV1 ovarian
# EKVX NSCLC = test system: EKVX NSCLC
# HCC-2998 colon = test system: HCC-2998 colon
# HCT-15 colon = test system: HCT-15 colon
# MDA-N = test system: MDA-N
# SR leukemia = test system: SR leukemia
# 786-0 renal = test system: 786-0 renal
# M14 melanoma = test system: M14 melanoma
# MOLT-4 leukemia = test system: MOLT-4 leukemia
# SNB-19 CNS = test system: SNB-19 CNS
# SF-539 CNS = test system: SF-539 CNS
# DU-145 prostate = test system: DU-145 prostate
# NCI-H460 lung = test system: NCI-H460 lung
# NCI-H226 lung = test system: NCI-H226 lung
# UACC-62 melanoma = test system: UACC-62 melanoma
# A549 NSCLC = test system: A549 NSCLC
# HOP-62 NSCLC = test system: HOP-62 NSCLC
# HT29 colon = test system: HT29 colon
# SK-MEL-2 melanoma = test system: SK-MEL-2 melanoma
# SNB-75 CNS = test system: SNB-75 CNS
# K-562 leukemia = test system: K-562 leukemia
# SK-MEL-28 melanoma = test system: SK-MEL-28 melanoma
# OVCAR-8 ovarian = test system: OVCAR-8 ovarian
# UACC-257 melanoma = test system: UACC-257 melanoma
# OVCAR-4 ovarian = test system: OVCAR-4 ovarian
# COLO 205 colon = test system: COLO 205 colon
# ACHN renal = test system: ACHN renal
# MDA-MB-435 = test system: MDA-MB-435
# LOX IMVI melanoma = test system: LOX IMVI melanoma
# NCI-H522 lung = test system: NCI-H522 lung
# CAKI-1 renal = test system: CAKI-1 renal
# SK-OV-3 ovarian = test system: SK-OV-3 ovarian
# OVCAR-3 ovarian = test system: OVCAR-3 ovarian
# KM12 colon = test system: KM12 colon
# RPMI-8226 leukemia = test system: RPMI-8226 leukemia
# HOP-92 NSCLC = test system: HOP-92 NSCLC
# SF-268 CNS = test system: SF-268 CNS
# T-47D breast = test system: T-47D breast
# UO-31 renal = test system: UO-31 renal
# CCRF-CEM leukemia = test system: CCRF-CEM leukemia
# TK-10 renal = test system: TK-10 renal
# A498 renal = test system: A498 renal
smiles,measurement,setting,value
Clc1ccc(OCC2NC3C=CC32)cn1 (configuration not stated),TGI,HS 578T breast,> 100 µM
same,TGI,NCI-H23 lung,> 100 µM
same,TGI,SN12C renal,> 100 µM
same,TGI,SF-295 CNS,> 100 µM
same,TGI,BT-549 breast,> 100 µM
same,TGI,HL-60(TB) leukemia,> 100 µM
same,TGI,NCI/ADR-RES ovarian,> 100 µM
same,TGI,OVCAR-5 ovarian,> 100 µM
same,TGI,HCT-116 colon,> 100 µM
same,TGI,U251 CNS,> 100 µM
same,TGI,MDA-MB-231 breast,> 100 µM
same,TGI,MALME-3M melanoma,> 100 µM
same,TGI,PC-3 prostate,> 100 µM
same,TGI,RXF 393 renal,> 100 µM
same,TGI,SW-620 colon,> 100 µM
same,TGI,MCF7 breast,> 100 µM
same,TGI,SK-MEL-5 melanoma,> 100 µM
same,TGI,IGROV1 ovarian,> 100 µM
same,TGI,EKVX NSCLC,93.7 µM
same,TGI,HCC-2998 colon,> 100 µM
same,TGI,HCT-15 colon,> 100 µM
same,TGI,MDA-N,> 100 µM
same,TGI,SR leukemia,> 100 µM
same,TGI,786-0 renal,> 100 µM
same,TGI,M14 melanoma,> 100 µM
same,TGI,MOLT-4 leukemia,> 100 µM
same,TGI,SNB-19 CNS,> 100 µM
same,TGI,SF-539 CNS,> 100 µM
same,TGI,DU-145 prostate,> 100 µM
same,TGI,NCI-H460 lung,> 100 µM
same,TGI,NCI-H226 lung,> 100 µM
same,TGI,UACC-62 melanoma,> 100 µM
same,TGI,A549 NSCLC,> 100 µM
same,TGI,HOP-62 NSCLC,> 100 µM
same,TGI,HT29 colon,> 100 µM
same,TGI,SK-MEL-2 melanoma,> 100 µM
same,TGI,SNB-75 CNS,> 100 µM
same,TGI,K-562 leukemia,> 100 µM
same,TGI,SK-MEL-28 melanoma,> 100 µM
same,TGI,OVCAR-8 ovarian,> 100 µM
same,TGI,UACC-257 melanoma,> 100 µM
same,TGI,OVCAR-4 ovarian,> 100 µM
same,TGI,COLO 205 colon,> 100 µM
same,TGI,ACHN renal,> 100 µM
same,TGI,MDA-MB-435,> 100 µM
same,TGI,LOX IMVI melanoma,> 100 µM
same,TGI,NCI-H522 lung,> 100 µM
same,TGI,CAKI-1 renal,> 100 µM
same,TGI,SK-OV-3 ovarian,> 100 µM
same,TGI,OVCAR-3 ovarian,> 100 µM
same,TGI,KM12 colon,> 100 µM
same,TGI,RPMI-8226 leukemia,> 100 µM
same,TGI,HOP-92 NSCLC,> 100 µM
same,TGI,SF-268 CNS,> 100 µM
same,TGI,T-47D breast,> 100 µM
same,TGI,UO-31 renal,> 100 µM
same,TGI,CCRF-CEM leukemia,> 100 µM
same,TGI,TK-10 renal,> 100 µM
N=C1N=C(N)c2cc3c(cc21)SCCSCCCSCCS3,TGI,HS 578T breast,44.2 µM
same,TGI,NCI-H23 lung,16.2 µM
same,TGI,SN12C renal,33.2 µM
same,TGI,SF-295 CNS,31.1 µM
same,TGI,BT-549 breast,31.4 µM
same,TGI,HL-60(TB) leukemia,20.6 µM
same,TGI,NCI/ADR-RES ovarian,> 100 µM
same,TGI,OVCAR-5 ovarian,40.3 µM
same,TGI,HCT-116 colon,23.6 µM
same,TGI,U251 CNS,> 50.7 µM
same,TGI,MDA-MB-231 breast,39.6 µM
same,TGI,MALME-3M melanoma,44.4 µM
same,TGI,PC-3 prostate,34.7 µM
same,TGI,RXF 393 renal,41.3 µM
same,TGI,SW-620 colon,30.7 µM
same,TGI,MCF7 breast,> 55.7 µM
same,TGI,SK-MEL-5 melanoma,31.7 µM
same,TGI,IGROV1 ovarian,38.4 µM
same,TGI,EKVX NSCLC,> 58.5 µM
same,TGI,HCC-2998 colon,27.8 µM
same,TGI,HCT-15 colon,32.3 µM
same,TGI,MDA-N,33.8 µM
same,TGI,A498 renal,> 69.6 µM
same,TGI,SR leukemia,37.6 µM
same,TGI,786-0 renal,32.6 µM
same,TGI,M14 melanoma,35.7 µM
same,TGI,MOLT-4 leukemia,32.5 µM
same,TGI,SNB-19 CNS,32.3 µM
same,TGI,SF-539 CNS,> 54.6 µM
same,TGI,DU-145 prostate,88.4 µM
same,TGI,NCI-H460 lung,29.9 µM
same,TGI,NCI-H226 lung,> 73.2 µM
same,TGI,UACC-62 melanoma,> 54.7 µM
same,TGI,A549 NSCLC,49.8 µM
same,TGI,HOP-62 NSCLC,30.7 µM
same,TGI,HT29 colon,> 48.6 µM
same,TGI,SK-MEL-2 melanoma,37.7 µM
same,TGI,SNB-75 CNS,46.9 µM
same,TGI,K-562 leukemia,31.8 µM
same,TGI,SK-MEL-28 melanoma,31.4 µM
same,TGI,OVCAR-8 ovarian,41.3 µM
same,TGI,UACC-257 melanoma,44 µM
same,TGI,OVCAR-4 ovarian,56.5 µM
same,TGI,COLO 205 colon,16.9 µM
same,TGI,ACHN renal,28.2 µM
same,TGI,MDA-MB-435,15.9 µM
same,TGI,LOX IMVI melanoma,17.6 µM
same,TGI,NCI-H522 lung,11.1 µM
same,TGI,CAKI-1 renal,> 63.4 µM
same,TGI,SK-OV-3 ovarian,41.1 µM
same,TGI,OVCAR-3 ovarian,28.4 µM
same,TGI,KM12 colon,26.7 µM
same,TGI,HOP-92 NSCLC,> 54.7 µM
same,TGI,SF-268 CNS,32.4 µM
same,TGI,T-47D breast,69.1 µM
same,TGI,UO-31 renal,> 100 µM
same,TGI,CCRF-CEM leukemia,> 25.9 µM
same,TGI,TK-10 renal,28.6 µM
O=c1[nH]c(=O)n(C2CC(O)C(CO)O2)cc1NN=NCc1ccccc1 (configuration not stated),TGI,HS 578T breast,> 100 µM
same,TGI,NCI-H23 lung,> 100 µM
same,TGI,SN12C renal,> 100 µM
same,TGI,SF-295 CNS,> 100 µM
same,TGI,BT-549 breast,> 100 µM
same,TGI,HL-60(TB) leukemia,> 100 µM
same,TGI,NCI/ADR-RES ovarian,> 100 µM
same,TGI,OVCAR-5 ovarian,> 100 µM
same,TGI,HCT-116 colon,> 100 µM
same,TGI,U251 CNS,> 100 µM
same,TGI,MDA-MB-231 breast,> 100 µM
same,TGI,MALME-3M melanoma,> 100 µM
same,TGI,PC-3 prostate,> 100 µM
same,TGI,RXF 393 renal,> 100 µM
same,TGI,MCF7 breast,> 100 µM
same,TGI,SK-MEL-5 melanoma,> 100 µM
same,TGI,IGROV1 ovarian,> 100 µM
same,TGI,EKVX NSCLC,> 100 µM
same,TGI,HCT-15 colon,> 100 µM
same,TGI,MDA-N,> 100 µM
same,TGI,SR leukemia,> 100 µM
same,TGI,786-0 renal,> 100 µM
same,TGI,M14 melanoma,> 100 µM
same,TGI,MOLT-4 leukemia,> 100 µM
same,TGI,SNB-19 CNS,> 100 µM
same,TGI,DU-145 prostate,> 100 µM
same,TGI,NCI-H460 lung,> 100 µM
same,TGI,NCI-H226 lung,> 100 µM
same,TGI,UACC-62 melanoma,> 100 µM
same,TGI,A549 NSCLC,> 100 µM
same,TGI,HOP-62 NSCLC,> 100 µM
same,TGI,HT29 colon,> 100 µM
same,TGI,SNB-75 CNS,> 100 µM
same,TGI,K-562 leukemia,> 100 µM
same,TGI,SK-MEL-28 melanoma,> 100 µM
same,TGI,OVCAR-8 ovarian,> 100 µM
same,TGI,UACC-257 melanoma,> 100 µM
same,TGI,OVCAR-4 ovarian,> 100 µM
same,TGI,ACHN renal,> 100 µM
same,TGI,MDA-MB-435,> 100 µM
same,TGI,LOX IMVI melanoma,> 100 µM
same,TGI,NCI-H522 lung,> 100 µM
same,TGI,CAKI-1 renal,> 100 µM
same,TGI,SK-OV-3 ovarian,> 100 µM
same,TGI,OVCAR-3 ovarian,> 100 µM
same,TGI,KM12 colon,> 100 µM
same,TGI,SF-268 CNS,> 100 µM
same,TGI,T-47D breast,> 100 µM
same,TGI,UO-31 renal,> 100 µM
same,TGI,CCRF-CEM leukemia,> 100 µM
same,TGI,TK-10 renal,> 100 µM
